Legend:
WT mice = assay: Bone volume and osteoblast differentiation in WT mice; type: in vivo, mouse
UPS activation = assay: Ub^G76V-GFP reporter cells (GFP+ cells) in osteoclast cultures and on pre-incubated bone slices; type: cell-based, mouse; details: for GFP+ cells on pre-incubated bone slices: BM cells from Ub^G76V-GFP mice on bone slices pre-incubated with compound
Procedure: (§1) FIG. 5A is a scheme of an exemplary synthesis of compound BP-Btz1. FIG. 5B is a series of images of bone slices pre-incubated with 1 μM BP-Btz1, Btz, or bisphosphonate (BP) overnight. Drug solutions were removed and bone slices were washed with PBS extensively. […] (BM) cells from UB^G76V-GFP mice were cultured on bone slices in the presence of M-CSF and RANKL for 9 days. Top images (a): GFP^+ cells were observed under a fluorescence microscope and GFP signal intensity was quantified. Middle images (b): bone slices were fixed and subjected to TRAP staining for osteoclasts (OCs). OC #/slice were counted. Bottom images (c): cells were removed from slices. Toluidine blue staining was performed and pit areas/slice were counted. FIG. 5C is a series of images of murine BM cells cultured and stained for ALP. FIG. 5D is a series of images of human MSCs cultured and stained for ALP. Murine BM cells and human MSCs were cultured in the OB-inducing medium plus different concentrations of BP-Btz1 or Btz for 4 or 6 days, respectively. Cells were stained for ALP. The ALP^+ areas were measured by Image J. *P<0.05 vs. Btz-treated cells.
1. Ub^G76V-GFP mice in B6 background (Stock #008111, Jax lab) are generated using previously described methods (Lindsten et al., 2003, Nat. Biotech. 21:897-902). The Ub^G76V-GFP transgene was designed with a chicken beta-actin promoter and CMV immediate early enhancer upstream of a GFP fused to a mutant ubiquitin moiety (Ub^G76V), a constitutively active proteasome degradation signal. Following proteasome inhibitor administration, Ub^G76V accumulates and GFP fluorescence is readily apparent. GFP^+ OCs were detected at 4 and 8 hrs after adding Btz to OC cultures, which disappeared at 24 hrs. […] 2. OC formation and resorption assays and data analyses are performed as described herein (FIG. 4) and using previously described methods (Zhang et al., 2014, J. Clin. Invest. 124:3200-3214; Xiu et al., 2014, J. Clin. Invest. 124:297-310). […] The number and area of OCs and resorption pits are assessed. The appearance, intensity and distribution of GFP^+ cells on bone slices and plastic surrounding bone slices during OC formation is observed and recorded. 3. OB differentiation. Third passages of BM stromal cells are used as MPCs, as previously described (Shu et al., 2013, J. Bone Min. Res. 28:1925-1935; Zhang et al., 2014, J. Clin. Invest. 124:3200-3214). MPCs are cultured on plastic plates in OB-inducing medium±BP-Btz conjugates, Btz or BP (0.1-100 nM) for 1-3 wks. Plates are subjected to alkaline phosphatase (ALP) and alizarin red staining, and qPCR analyses. Area of ALP^+ and mineralized bone nodule, and the expression levels of OB marker genes (ALP, osteocalcin, Runx2) are measured. GFP^+ cells during OB differentiation are observed as in OCs. In a parallel experiment, human MSCs (from Lonza) are treated with BP-Btz, Btz, or BP in OB-inducing medium and their effects examined on OB differentiation as show in FIGS. 5C and 5D. 4. Western blot/Ub assays. OCPs or MPCs are treated with a preferred dose of leading BP-Btz, Btz and BP. OCP lysates are subjected to Western blot using α-NF-κB members and TRAF6 Abs. OB lysates are subjected to Western blot with α-ubiquitin, Runx2, or JunB Abs, and Ub assays using UbiQapture matrix (Biomol) to pull down Ub-proteins followed by α-Runx2 and JunB Abs using previously described methods (Zhao et al., 2010, J. Bone Min. Res. 25:1246-1256; Zhao et al., 2011, Stem cells 29:1601-1610).

fractured aged mice = assay: Tibial fracture healing in aged (20-m-old) mice; type: in vivo, mouse
Procedure: 20-m-old B6 mice had tibial fractures and were given Btz (0.6 mg/kg body weight, i.p.) or saline (Ctl) at day 1, 3, and 5 post-fracture 3 times. FIG. 8A is a graph depicting callus volumes for mice subjected to μCT at day 28. FIG. 8B is a graph depicting experimental data from mice subjected to bio-mechanical testing at day 28. FIG. 8C is a graph depicting experimental data of mice sacrificed for histological analyses at day 28. Values are the mean of 6 mice. *P<0.05 vs. saline-treated mice. FIG. 8D is a graph of data from 3-m-old (young) and 20-m-old (aged) mice after tibial fracture surgery and sacrificed at day 14 post-fracture. The % of CD45^−CD105^+Sca-1^+ cells in fracture callus were determined by flow cytometry as depicted in FIG. 7B. Values are the mean of 4 mice. *P<0.05 vs. saline-treated aged mice. #P<0.05 vs. young mice.

thymus = details: mice, cited from earlier work
human MPCs = assay: Osteoblast differentiation of human MPCs/MSCs (ALP staining); type: cell-based
Procedure: as §1, with “FIG. 5C is a series of images of murine BM cells cultured and stained for ALP. FIG. 5D is a series of images of human MSCs cultured and stained for ALP. Murine BM cells and human MSCs were cultured in the OB-inducing medium plus different concentrations of BP-Btz1 or Btz for 4 or 6 days, respectively. Cells were stained for ALP.” left out
1. […] Following proteasome inhibitor administration, Ub^G76V accumulates and GFP fluorescence is readily apparent. GFP^+ OCs were detected at 4 and 8 hrs after adding Btz to OC cultures, which disappeared at 24 hrs. […] The number and area of OCs and resorption pits are assessed. The appearance, intensity and distribution of GFP^+ cells on bone slices and plastic surrounding bone slices during OC formation is observed and recorded. […] Area of ALP^+ and mineralized bone nodule, and the expression levels of OB marker genes (ALP, osteocalcin, Runx2) are measured. […]

C57/B6 mice = assay: Systemic toxicity in C57/B6 mice, daily treatment for 3 weeks; type: in vivo
Procedure: C57/B6 mice, 7 w, BP or Btz (0.6 mg/kg), BP-Btz (1.2 mg/k), daily for 3 weeks. FIG. 29A depicts the groups and treatment used in the experimental examples. FIG. 29B depicts a table of experimental data of body weight before and after treatment. […] FIG. 29D depicts experimental data of bone marrow.

Myeloma cells = assay: Myeloma cell growth in vitro (living cell count); type: cell-based; details: 24 hrs, living cell numbers counted
Procedure: Myeloma cells were treated with different concentrations of testing compounds for 24 hrs. The living cell numbers were counted. *p<0.05 vs. Btz.

SMILES | bone volume (WT mice; 3-m-old mice, 0.6 mg/kg/i.p. at day 1, 3, 5, read at day 10) | GFP+ OCs after adding compound to OC cultures (UPS activation; 4 and 8 hrs) | GFP+ OCs after adding compound to OC cultures (UPS activation; 24 hrs) | GFP+ cells on pre-incubated bone slices (UPS activation) | fracture repair (fractured aged mice; 20-m-old B6 mice, 0.6 mg/kg i.p. day 1, 3, 5) | MPCs (fractured aged mice; fractured aged mice) | bone strength (fractured aged mice; fractured aged mice) | callus formation (fractured aged mice; fractured aged mice) | splenocytes numbers (thymus; Btz injection) | total and CD4+ and CD8+ thymocyte numbers (thymus; Btz injection) | number of T cells in the thymus (thymus; as early as 3 days after administration) | bone volume (WT mice; WT mice, FIG. 17) | osteoblast differentiation (WT mice; WT mice, FIG. 17) | osteoblast differentiation (human MPCs) | B cell numbers in bone marrow (C57/B6 mice; C57/B6 mice, 7 w, daily for 3 weeks) | systemic toxicity (C57/B6 mice; C57/B6 mice, daily for 3 weeks, compared with Btz) | toxic effect on neurons (dorsal root ganglia) (C57/B6 mice; EM images of dorsal root ganglia) | myeloma cell growth (Myeloma cells)
CC(C)C[C@H](NC(=O)[C@H](Cc1ccccc1)NC(=O)c1cnccn1)B(O)O [Btz, [(1R)-3-methyl-1-[[(2S)-1-oxo-3-phenyl-2[(pyrazinylcarbonyl)amino]propyl]amino]butyl] boronic acid] | increased bone volume | detected | disappeared | not | promotes fracture repair | increased | increased | increased | not | markedly decreases | significantly reduces | – | – | – | – | – | – | –
CC(C)C[C@H](NC(=O)[C@H](Cc1ccccc1)NC(=O)c1cnccn1)B1OCCN(CCOC(=O)NC(P(=O)(O)O)P(=O)(O)O)CCO1 [BP-Btz1] | – | – | – | present | – | – | – | – | – | – | – | increases bone volume | increases | stimulates osteoblast differentiation | reduces B cell numbers | less systemic toxicity than Btz | prevents toxic effect on neurons | inhibits myeloma cell growth
